The values below come from PMC12232897, “Harnessing Negative Photochromism in Styryl Cyanines for Light‐Modulated Proton Transport” (Angewandte Chemie (International Ed. in English), 2025).

What all share (format): physicochemical
Data set [1] is described as follows: Solubility in solvents. The following applies: solvent. An excerpt: Having explored the effect of substituents, we next focused on the impact of the medium. […] These findings can be explained using the reported hydrogen‐bond donor (HBD) acidity (Taft–Kamlet α‐scale) of the utilized solvents.^[ [39] ^] Such a big difference in thermal half‐life has to be associated with the proton transfer from the secondary amine (in the closed form) to the phenol group since the back relaxation from the closed form to the open conjugated form is a […] process. We hypothesize that solvents like water and methanol trigger a Grotthus‐like proton transfer mechanism which speeds up the back‐relaxation process, similar to what was previously reported for other phenol‐bearing photoswitches.^[ [40] ^]
Similar to what is observed for the other compounds, the half‐life of closed 1f in water is extremely small (Table 1). This opens the opportunity of using 1f in out‐of‐equilibrium^[ [45] ^] and dissipative water‐based systems. Moreover, irradiation of 1f triggers the photo reactions that generate its respective closed indole‐like form, which compared to the closed forms of 1a–e also has a lower value of pK^hν (Table 1) and generates a higher ΔpK a value between the open and closed forms, being 1.7 pK a units, thanks to the electron‐withdrawing effect coming from the presence of a sulfonate group.

Data set [2] is described as follows: pKa in the dark and under light irradiation. The settings on record: for pKa: water:DMSO 99:1, dark, read-out: pKa dark (open form). An excerpt: Since light‐induced cyclization is also associated with a change in the nature of the amino group of 1a–e, we investigated the change in their pK a upon light irradiation. This phenomenon has been already reported in the literature for other photoresponsive molecules,^[ [41], [42] ^] and it is recognized that, apart from being key in many biological processes, is a powerful tool for potential applications in catalysis^[ [43] ^] or self‐assembly.^[ [44] ^] […] Moreover, for compounds 1b and 1c, bearing methoxy groups, the change in pK a generated upon light irradiation is considerably smaller than for compounds 1d and 1e, bearing fluorine groups. This difference can be easily associated with the nature of the substituents, where for 1d–e the electron‐withdrawing effect of the fluorine favors a higher acidity of the closed isomers, contrarily to the effect of the electron‐donating groups for 1b–c.

Data set [3] in a line: Fatigue resistance / photostability under 365 nm irradiation. The settings on record: UV–vis absorbance kinetic experiments.

In the case of `CC1(C)C(/C=C/c2ccccc2O)=Nc2ccccc21` [1a], the Solubility result in data set [1] was “soluble in both polar and apolar solvents”. The pKa in data set [2] is 4.3.
Turning to `COc1ccc2c(c1)C(C)(C)C(/C=C/c1ccccc1O)=N2` [1b], in data set [2], the pKa was 4.6.
On the same count and under the same terms, the figure for `COc1ccc(O)c(/C=C/C2=Nc3ccccc3C2(C)C)c1` [1c] is 4.3; for `CC1(C)C(/C=C/c2ccccc2O)=Nc2ccc(F)cc21` [1d] it is 4.3; for `CC1(C)C(/C=C/c2cc(F)ccc2O)=Nc2ccccc21` [1e] it is 4.3.
For the molecule `CC1(C)C(/C=C/c2ccccc2O)=Nc2ccc(S(=O)(=O)[O-])cc21.[K+]` [1f], in data set [1], the Solubility entry is “fully soluble and fully switchable in water”. Further, the “ΔpKa between the open and closed forms” value in data set [2] (water:DMSO 99:1) is on record as 1.7 pK a units. Further, the pKa in data set [2] was 3.9.
With `COc1ccccc1/C=C/C1=Nc2ccccc2C1(C)C` [1g], in data set [3], the “Photostability on prolonged irradiation at 365 nm” value is “photodegradation of the sample”.
